Data published in PubChem BioAssay (NCI).
Several values for one entry are separate records, joined by “and”; a condition that tells them apart may be missing. Equal entries are not always repeated.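 Exposure lasted 48 hours, with cells grown in 96-well plates and compounds tested at five concentrations. TGI: concentration producing complete growth inhibition.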 *1 amine or outer side, *2 acyl side, *3 side chain or, on linkers, in order; H or OH if unused. Where a SMILES comes first, the peptide text is derived from it. [ ]: non-standard residue; d: D form. The star is where a group is joined. X31 = CC(=O)N(C)SCC(N[*:1])C(=O)[*:2]; Fmoc = O=C(OCC1c2ccccc2-c2ccccc21)*; For = O=C*

Key:
Test in all cases: NCI tumour cell line growth inhibition, 48 h
786-0 renal = test system: 786-0 renal
ACHN renal = test system: ACHN renal
HCT-15 colon = test system: HCT-15 colon
HOP-92 NSCLC = test system: HOP-92 NSCLC
IGROV1 ovarian = test system: IGROV1 ovarian
MCF7 breast = test system: MCF7 breast
NCI-H226 lung = test system: NCI-H226 lung
SF-295 CNS = test system: SF-295 CNS
SK-OV-3 ovarian = test system: SK-OV-3 ovarian
U251 CNS = test system: U251 CNS

SMILES	TGI (786-0 renal)	TGI (ACHN renal)	TGI (HCT-15 colon)	TGI (HOP-92 NSCLC)	TGI (IGROV1 ovarian)	TGI (MCF7 breast)	TGI (NCI-H226 lung)	TGI (SF-295 CNS)	TGI (SK-OV-3 ovarian)	TGI (U251 CNS)
O=C1/C(=C/c2ccc(Cl)cc2)Sc2scc(-c3cccc([N+](=O)[O-])c3)[n+]21	6.49 µM	6.27 µM	4.66 µM	5.39 µM	7.48 µM	> 40.7 µM	> 100 µM	17.9 µM	23.6 µM	23.6 µM
c1ccc(CSC(SCc2ccccc2)c2ccc3c(c2)OCO3)cc1	> 10 µM	> 10 µM	> 10 µM	> 10 µM	> 10 µM	> 10 µM	> 10 µM	> 10 µM	> 10 µM	> 10 µM
CCOC(=O)Oc1ccc2c(c1)c(=O)c1c(NCCCN(CC)CC)ccc3nnn2c31	15.7 µM	15.8 µM	21 µM	24.6 µM	34.2 µM	15.7 µM	19.8 µM	21.3 µM	23.4 µM	23.6 µM
CC(C)OP(=O)(OC(C)C)C(Nc1cccc(C(F)(F)F)c1)c1ccccc1 (stereo not given)	> 100 µM	> 100 µM	> 100 µM	> 100 µM	> 100 µM	> 100 µM	> 100 µM	> 100 µM	> 100 µM	> 100 µM
O=C1Nc2ccc(Br)cc2/C1=C/C(=O)c1ccccc1	3.28 µM	3.32 µM	6.51 µM	12.5 µM	13.3 µM	15.3 µM	43.8 µM	32.5 µM	31.9 µM	36.7 µM
CC1(C)CC2(C)ON=C(c3ccccc3)N2c2ccccc2N1 (stereo not given)	57.3 µM	68.8 µM	> 100 µM	61.4 µM	> 100 µM	47 µM	42.8 µM	> 100 µM	53 µM	41.1 µM
COC(=O)CNCC1OC2OC(C)(C)OC2C1N=[N+]=[N-] (stereo not given)	> 100 µM	> 100 µM	> 100 µM	> 100 µM	> 100 µM	> 100 µM	> 100 µM	> 100 µM	> 100 µM	> 100 µM
N#CCN(Cc1ccccc1)[C@@H]1CCC[C@]1(O)C#Cc1ccc2c(c1)OCO2	29.2 µM	36 µM	66.7 µM	27 µM	39.7 µM	37.9 µM	33.6 µM	41.8 µM	90.1 µM	33.9 µM
CC(=O)N(C)SCC(NC(=O)C(Cc1ccccc1)NC(=O)OCC1c2ccccc2-c2ccccc21)C(=O)NC(Cc1ccccc1)C(=O)NC(Cc1cn(C=O)c2ccccc12)C(=O)NC(CCCCNC(=O)OCC1c2ccccc2-c2ccccc21)C(=O)NC(C(=O)NC(CSN(C)C(C)=O)C(=O)NC(C(N)=O)C(C)O)C(C)O (stereo not given) (Fmoc-F[X31]FW(For)K(Fmoc)T[X31]T-NH2; configuration not given here)	> 100 µM	> 100 µM	> 100 µM	62.4 µM	> 100 µM	> 100 µM	> 100 µM	> 100 µM	> 100 µM	> 100 µM
Oc1ccccc1-n1nc2ccc3nonc3c2n1	> 100 µM	> 100 µM	> 100 µM	> 100 µM	> 100 µM	> 100 µM	> 100 µM	> 100 µM	> 100 µM	> 100 µM
COC(=O)[C@@H]1[C@H](O)CC[C@H]2[C@@]1(C)CC[C@@H](C)[C@]2(COC(C)=O)CC(=O)c1ccoc1	> 50 µM	> 50 µM	> 50 µM	> 50 µM	> 50 µM	> 50 µM	> 50 µM	> 50 µM	> 50 µM	> 50 µM
Cc1ccc(-n2cc(-c3ccc(Cl)cc3)c(C#N)c2N)cc1	29.1 µM	50 µM	25 µM	31.5 µM	29.9 µM	28.2 µM	31.7 µM	33.8 µM	43.4 µM	27.3 µM
Cc1nc(Nc2nc3ccccc3[nH]2)[nH]c(=O)c1CCO	> 100 µM	> 100 µM	> 100 µM	> 100 µM	> 57 µM	> 100 µM	> 96 µM	> 100 µM	> 82.1 µM	> 100 µM
O=C1c2c(ccc3c2CCCC3)CC1Cc1ccc2c(c1)CCCC2 (stereo not given)	> 100 µM	> 100 µM	> 100 µM	83.6 µM	> 100 µM	> 100 µM	> 100 µM	> 100 µM	> 100 µM	> 100 µM
Cc1[nH]c2ccccc2c1C1=CC(=O)N(c2ccccc2)C1=O	31.4 µM	> 100 µM	34.5 µM	50.9 µM	> 100 µM	48.1 µM	88.4 µM	> 100 µM	> 100 µM	47.7 µM
C(=N/NC1=NCCN1)/c1c2ccccc2c(/C=N\NC2=NCCN2)c2ccccc12	1.86 µM and 1.87 µM	1.26 µM and 3.97 µM	214 µM	0.547 µM and 0.967 µM and 0.34 µM	0.661 µM and 3.09 µM and 4.75 µM	0.788 µM and 3.14 µM and 3.88 µM	0.352 µM and 0.239 µM and 0.445 µM	1.98 µM and 2.11 µM and 2.71 µM	0.526 µM and 1.82 µM and 3.48 µM	0.722 µM and 0.309 µM and 1.16 µM
C=CC[C@H]1[C@H](O[Si](C)(C)C(C)(C)C)C=CC(=O)[C@@H]1CC(=O)OCC	27.6 µM	27.2 µM	26.6 µM	24.2 µM	32.8 µM	23.7 µM	29.2 µM	27.8 µM	34.1 µM	27.8 µM
C=CCC1C2CCC(O[Si](C(C)C)(C(C)C)C(C)C)(C(C(=O)OC)C2)C1O (stereo not given)	> 100 µM	> 100 µM	> 100 µM	> 100 µM	> 100 µM	> 100 µM	> 100 µM	> 100 µM	> 100 µM	> 100 µM
